In US10227360B2, “Compounds for use as GPR120 agonists” (PIRAMAL ENTERPRISES LIMITED, priority 2014, dated 2019):

target: GPR120L receptor (Homo sapiens (Human), UniProt Q5NUL3); test: Beta (β) arrestin 2 Interaction Assay (BRET assay), β-galactosidase enzyme fragment complementation; format: cell-based; details: CHO-K1 cells stably expressing the GPR120L receptor; β-arrestin recruitment; 2 hours incubation
Method: Beta (β) arrestin 2 Interaction Assay (BRET assay) was performed using CHO-K1 cells stably expressing the GPR120L receptor using β-galactosidase (Beta gal) enzyme fragment complementation assay. The measurement of GPR120 activation upon agonist activation was directly provided by β-arrestin recruitment. One day before the β-arrestin 2 assay, CHO-K1 cells were seeded and incubated overnight at 37° C. in a 5% CO2 humidified atmosphere. Cells were treated with the test compounds in the various concentrations ranging from 30 μM to 1 nM and incubated for 2 hours for GPCR (GPR120) activation. Extent of Arrestin recruitment was measured by adding detection reagents for Beta gal complementation assay and was further incubated for 1 hour. The chemi-luminescent signal was detected on Polar Star (BMG Labtech). The dose-response curve was analyzed using Sigma Plot/Graph Pad. The EC50 (concentration of the test compounds where 50% of compounds' maximal activity is observed) values were calculated from the dose-response curve.

GPR120L receptor, sequence (Q5NUL3 other isoform, or with tags, fused parts or gaps): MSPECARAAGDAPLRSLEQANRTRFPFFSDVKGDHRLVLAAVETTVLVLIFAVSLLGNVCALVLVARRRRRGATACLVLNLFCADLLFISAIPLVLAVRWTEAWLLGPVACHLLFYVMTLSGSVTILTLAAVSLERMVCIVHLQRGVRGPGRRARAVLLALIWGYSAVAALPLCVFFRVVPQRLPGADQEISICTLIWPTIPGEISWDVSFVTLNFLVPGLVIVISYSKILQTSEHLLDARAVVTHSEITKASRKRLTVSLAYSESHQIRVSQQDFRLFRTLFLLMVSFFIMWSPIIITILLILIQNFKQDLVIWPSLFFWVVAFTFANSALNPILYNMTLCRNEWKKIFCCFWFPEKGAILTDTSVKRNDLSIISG

SMILES | EC50 [µM]
O=C(O)CCCc1ccc(OCc2cc(F)ccc2-c2ncc(C3CC3)s2)cc1 [Example 45, 4-(4-((2-(5-Cyclopropylthiazol-2-yl)-5-fluorobenzyl)oxy)phenyl)butanoic acid] | 0.01 to 0.5
N#CC1(c2ccc(-c3ccc(F)cc3COc3ccc(CCCC(=O)O)cc3)s2)CC1 [Example 1, 4-(4-((2-(5-(1-Cyanocyclopropyl)thiophen-2-yl)-5-fluorobenzyl)oxy)phenyl)butanoic acid] | 0.01 to 0.5
CC1(C)CCC=C1c1ccc(-c2ccc(F)cc2COc2ccc(CCC(=O)O)cc2)cc1 [Example 15, 3-(4-((4′-(5,5-Dimethylcyclopent-1-en-1-yl)-4-fluoro-[1,1′-biphenyl]-2-yl)methoxy)phenyl)propanoic acid] | 5 to 50
C=C1CCCc2nc(-c3ccc(F)cc3COc3ccc(CCCC(=O)O)cc3)sc21 [Example 25, 4-(4-((5-Fluoro-2-(7-methylene-4,5,6,7-tetrahydrobenzo[d]thiazol-2-yl)benzyl)oxy)phenyl)butanoic acid] | 0.5 to 5
O=C(O)CCCc1ccc(OCc2cc(F)ccc2-c2ccc(C3CC3(F)F)cc2)cc1 (stereo not drawn) [Example 43, 4-(4-((4′-(2,2-Difluorocyclopropyl)-4-fluoro-[1,1′-biphenyl]-2-yl)methoxy)phenyl)butanoic acid] | 0.01 to 0.5
Cc1cc(-c2ccc(F)cc2COc2ccc(CCCC(=O)O)cc2)ccc1C1CC1 [Example 29, 4-(4-((4′-cyclopropyl-4-fluoro-3′-methyl-[1,1′-biphenyl]-2-yl)methoxy)phenyl)butanoic acid] | 0.01 to 0.5
O=C(O)CCCc1ccc(OCc2cc(F)ccc2-c2nc3c(s2)CCCCC3)cc1 [Example 41, 4-(4-((5-Fluoro-2-(5,6,7,8-tetrahydro-4H-cyclohepta[d]thiazol-2-yl)benzyl)oxy)phenyl)butanoic acid] | 0.01 to 0.5
O=C(O)CCCc1ccc(OCc2cc(F)ccc2-c2nc3c(s2)COCC3)cc1 [Example 49, 4-(4-((2-(6,7-Dihydro-4H-pyrano[4,3-d]thiazol-2-yl)-5-fluorobenzyl)oxy)phenyl)butanoic acid] | 0.01 to 0.5
O=C(O)CCCc1ccc(OCc2cc(F)ccc2-c2nc3c(s2)CCC3)cc1 [Example 47, 4-(4-((2-(5,6-dihydro-4H-cyclopenta[d]thiazol-2-yl)-5-fluorobenzyl)oxy)phenyl)butanoic acid] | 0.01 to 0.5
O=C(O)CCCc1ccc(OCc2cc(F)ccc2-c2nc3c(s2)COCC3)cc1 [Example 48, 4-(4-((2-(6,7-Dihydro-4H-pyrano[4,3-d]thiazol-2-yl)-5-fluorobenzyl)oxy)phenyl)butanoic acid] | 0.5 to 5
O=C(O)CCCc1ccc(OCc2cc(F)ccc2-c2ccc(C3CCC3)s2)cc1 [Example 28, 4-(4-((2-(5-Cyclobutylthiophen-2-yl)-5-fluorobenzyl)oxy)phenyl)butanoic acid] | 0.01 to 0.5
O=C(O)CCCc1ccc(OCc2ccccc2-c2ccc3c(c2)CC3)cc1 [Example 26, 4-(4-((2-(Bicyclo[4.2.0]octa-1(6),2,4-trien-3-yl)benzyl)oxy)phenyl)butanoic acid] | 0.01 to 0.5
O=C(O)CCCc1ccc(OCc2cc(F)ccc2-c2nc(C3CC3)cs2)cc1 [Example 50, 4-(4-((2-(4-Cyclopropylthiazol-2-yl)-5-fluorobenzyl)oxy)phenyl)butanoic acid] | 0.5 to 5
O=C(O)CCCc1ccc(OCc2ccccc2-c2ccc3c(c2)CCC3)cc1 [Example 33, 4-(4-((2-(2,3-Dihydro-1H-inden-5-yl)benzyl)oxy)phenyl)butanoic acid] | 0.01 to 0.5
O=C(O)CCCc1ccc(OCc2cc(F)ccc2-c2cc3c(s2)CCCC3)cc1 [Example 23, 4-(4-((5-Fluoro-2-(4,5,6,7-tetrahydrobenzo[b]thiophen-2-yl)benzyl)oxy)phenyl)butanoic acid] | 0.01 to 0.5
O=C(O)CCCc1ccc(OCc2cc(F)ccc2-c2nnc(C3CC3)s2)cc1 [Example 44, 4-(4-((2-(5-Cyclopropyl-1,3,4-thiadiazol-2-yl)-5-fluorobenzyl)oxy)phenyl)butanoic acid] | 0.01 to 0.5
N#CC1(c2ccc(-c3ccc(F)cc3COc3ccc(CCC(=O)O)nc3)cc2)CC1 [Example 18, 3-(5-((4′-(1-Cyanocyclopropyl)-4-fluoro-[1,1′-biphenyl]-2-yl)methoxy)pyridin-2-yl)propanoic acid] | 0.01 to 0.5
O=C(O)CCc1ccc(OCc2cc(F)ccc2-c2ccc(C3(O)CCC3)cc2)cc1 [Example 14, 3-(4-((4-Fluoro-4′-(1-hydroxycyclobutyl)-[1,1′-biphenyl]-2-yl)methoxy)phenyl)propanoic acid] | 0.5 to 5
O=C(O)CCCc1ccc(OCc2cc(F)ccc2-c2ccc3c(c2)CCO3)cc1 [Example 22, 4-(4-((2-(2,3-Dihydrobenzofuran-5-yl)-5-fluorobenzyl)oxy)phenyl)butanoic acid] | 0.01 to 0.5
O=C(O)CCCc1ccc(OCc2cc(F)ccc2-c2ccc(C3(O)CCC3)s2)cc1 [Example 12, 4-(4-((5-Fluoro-2-(5-(1-hydroxycyclobutyl)thiophen-2-yl)benzyl)oxy)phenyl)butanoic acid] | 0.5 to 5

SMILES | EC50 [µM]
N#CC1(c2ccc(-c3ccc(F)cc3COc3ccc(CCC(=O)O)cc3)cn2)CC1 [Example 6, 3-(4-((2-(6-(1-Cyanocyclopropyl)pyridin-3-yl)-5-fluorobenzyl)oxy)phenyl)propanoic acid] | 0.5 to 5
O=C(O)CCCc1ccc(OCc2cc(F)ccc2-c2ccc(C3CC3)nc2)cc1 [Example 30, 4-(4-((2-(6-Cyclopropylpyridin-3-yl)-5-fluorobenzyl)oxy)phenyl)butanoic acid] | 0.01 to 0.5
O=C(O)CCCc1ccc(OCc2cc(F)ccc2-c2nc3c(s2)CCCC3)cc1 [Example 46, 4-(4-((5-Fluoro-2-(4,5,6,7-tetrahydrobenzo[d]thiazol-2-yl)benzyl)oxy)phenyl)butanoic acid] | 0.01 to 0.5
O=C(O)CCc1ccc(OCc2cc(F)ccc2-c2ccc(C3COC3)cc2)cc1 [Example 13, 3-(4-((4-Fluoro-4′-(oxetan-3-yl)-[1,1′-biphenyl]-2-yl)methoxy)phenyl)propanoic acid] | 5 to 50
N#CC1(c2ccc(-c3ccc(F)cc3COc3ccc(CCC(=O)O)cc3)cc2)CC1 [Example 5, 3-(4-((4′-(1-Cyanocyclopropyl)-4-fluoro-[1,1′-biphenyl]-2-yl)methoxy)phenyl)propanoic acid] | 0.01 to 0.5
O=C(O)CCCc1ccc(OCc2cc(F)ccc2-c2ccc3c(c2)CCC=C3)cc1 [Example 35, 4-(4-((2-(7,8-Dihydronaphthalen-2-yl)-5-fluorobenzyl)oxy)phenyl)butanoic acid] | 0.01 to 0.5
O=C(O)CCCc1ccc(OCc2cc(F)ccc2-c2cnc3c(c2)CCC3)cc1 [Example 24, 4-(4-((2-(6,7-Dihydro-5H-cyclopenta[b]pyridin-3-yl)-5-fluorobenzyl)oxy)phenyl)butanoic acid] | 0.01 to 0.5
N#CC1(c2ccc(-c3ccc(F)cc3COc3ccc(CCC(=O)O)cc3)s2)CC1 [Example 2, 3-(4-((2-(5-(1-Cyanocyclopropyl)thiophen-2-yl)-5-fluorobenzyl)oxy)phenyl)propanoic acid] | 0.5 to 5
O=C(O)CCCc1ccc(OCc2cc(F)ccc2-c2ccc(C3CC3)s2)cc1 [Example 11, 4-(4-((2-(5-Cyclopropylthiophen-2-yl)-5-fluorobenzyl)oxy)phenyl)butanoic acid] | 0.01 to 0.5
CC1=CCCc2cc(-c3ccc(F)cc3COc3ccc(CCCC(=O)O)cc3)ccc21 [Example 37] | 0.5 to 5
O=C(O)CCc1ccc(OCc2cc(F)ccc2-c2ccc(C3COC3)nc2)cc1 [Example 17, 3-(4-((5-Fluoro-2-(6-(oxetan-3-yl)pyridin-3-yl)benzyl)oxy)phenyl)propanoic acid] | 5 to 50
COC1(C)CCCc2cc(-c3ccc(F)cc3COc3ccc(CCCC(=O)O)cc3)ccc21 (stereo not drawn) [Example 39, 4-(4-((5-Fluoro-2-(5-methoxy-5-methyl-5,6,7,8-tetrahydronaphthalen-2-yl)benzyl)oxy)phenyl)butanoic acid] | 5 to 50
N#CC1(c2ccc(-c3ncccc3COc3ccc(CCC(=O)O)cc3)cc2)CC1 [Example 21, 3-(4-((2-(4-(1-Cyanocyclopropyl)phenyl)pyridin-3-yl)methoxy)phenyl)propanoic acid] | 5 to 50
O=C(O)CCCc1ccc(OCc2cc(F)ccc2-c2ccc3c(c2)CCC3)cc1 [Example 8, 4-(4-((2-(2,3-Dihydro-1H-inden-5-yl)-5-fluorobenzyl)oxy)phenyl)butanoic acid] | 0.01 to 0.5
CC1(c2ccc(-c3ccc(F)cc3COc3ccc(CCCC(=O)O)cc3)cc2)CC1 [Example 3, 4-(4-((4-Fluoro-4′-(1-methylcyclopropyl)-[1,1′-biphenyl]-2-yl)methoxy)phenyl)butanoic acid] | 0.01 to 0.5
O=C(O)CCCc1ccc(OCc2cc(F)ccc2-c2ccc(C3CC3)cc2)cc1 [Example 7, 4-(4-((4′-Cyclopropyl-4-fluoro-[1,1′-biphenyl]-2-yl)methoxy)phenyl)butanoic acid] | 0.01 to 0.5
O=C(O)CCCc1ccc(OCc2cc(F)ccc2-c2cnc(C3CC3)nc2)cc1 [Example 31, 4-(4-((2-(2-Cyclopropylpyrimidin-5-yl)-5-fluorobenzyl)oxy)phenyl)butanoic acid] | 0.01 to 0.5
O=C(O)CCCc1ccc(OCc2cc(F)ccc2-c2ccc(C3CCCCC3)cc2)cc1 [Example 16, 4-(4-((4′-Cyclohexyl-4-fluoro-[1,1′-biphenyl]-2-yl)methoxy)phenyl)butanoic acid] | 0.5 to 5
O=C(O)CCCc1ccc(OCc2cc(F)ccc2-c2ccc3c(c2)CCCC3=O)cc1 [Example 34, 4-(4-((5-Fluoro-2-(5-oxo-5,6,7,8-tetrahydronaphthalen-2-yl)benzyl)oxy)phenyl)butanoic acid] | 0.5 to 5
